Experimental data published in patent publication US12043612B2, “Methods of manufacturing a bifunctional compound, ultrapure forms of the bifunctional compound, and dosage forms comprising the same” (Arvinas Operations, Inc., priority 2020, dated 2024).
In brackets after ≈: the same amount, converted by molar mass.

Tests used:
BCS designation = details: low solubility, low permeability
[1] = pH-Solubility Profile in buffers and simulated intestinal fluids; format: physicochemical; details: read-out: pH-Solubility Profile, Concentration
Protocol: This batch was prepared for use in the 28-day good laboratory practice (GLP) toxicology studies using the same synthetic scheme and processing employed in preparation of active pharmaceutical ingredient (API) to be used in the clinical drug product.

[2] = Solubility in pH 6.5 simulated intestinal fluid (SIF); format: physicochemical

For N#Cc1ccc(O[C@H]2CC[C@H](NC(=O)c3ccc(N4CCC(CN5CCN(c6cc7c(cc6F)C(=O)N(C6CCC(=O)NC6=O)C7=O)CC5)CC4)nn3)CC2)cc1Cl (stereo partly drawn) [Compound A, N-[(1r,4r)-4-(3-chloro-4-cyanophenoxy)cyclohexyl]-6-[4-({4-[2-(2,6-dioxopiperidin-3-yl)-6-fluoro-1,3-dioxo-2,3-dihydro-1H-isoindol-5-yl]piperazin-1-yl}methyl)piperidin-1-yl]pyridazine-3-carboxamide], the BCS designation (BCS designation) was “BCS IV”, the solubility ([1]; aqueous buffer, pH 3 200 mM citrate buffer, pH of solution 3.0) was 15 µg/mL (≈ 18.5 µM) and the solubility ([1]; aqueous buffer, pH 5 200 mM citrate buffer, pH of solution 5.0) was 0.5 µg/mL (≈ 0.616 µM). It also gave a solubility ([1]; aqueous buffer, pH 6.5 200 mM citrate buffer, pH of solution 6.5) of 0.3 µg/mL (≈ 0.369 µM), a solubility ([1]; pH 5, fessif, Fed state simulated intestinal fluid, pH of solution 5.0) of 22 µg/mL (≈ 27.1 µM) and a solubility ([1]; pH 6.5, fassif, Fasted state simulated intestinal fluid, pH of solution 6.5) of 1 µg/mL (≈ 1.23 µM). It also gave a solubility ([1]; simulated gastric fluid, pH 1.2 HCl (aq), pH of solution 1.2) of 397 µg/mL (≈ 489 µM), a solubility ([2]; fassif, thermodynamic from solid, pH 6.5 simulated intestinal fluid (SIF), read-out: crystalline solid's solubility) of 1.2 µg/mL (≈ 1.48 µM) and a solubility ([2]; pH 6.5, fassif, read-out: amorphous solubility in SIF) of 30 µg/mL (≈ 36.9 µM).
